In US20190154879A1, “Silicone Hydrogel Contact Lenses Having Improved Lubricity” (CooperVision International Holding Company, LP, priority 2016, published 2019):

Assays:
[1] = Hydrophilic-lipophilic balance (HLB) value; type: physicochemical; settings: calculated as twenty times molecular weight of hydrophilic portion divided by total molecular weight
rabbits = test: Cytotoxicity by ocular irritation study (ISO 10993-10); type: in vivo; settings: 0.035% in PBS, ocular irritation study in rabbits (ISO 10993-10)
Text: An advantage of the surfactants used herein is that they are non-cytotoxic at concentrations effective at reducing surface concentration of silicon, and thus may be left in the final packaged contact lens. In contrast, other methods for reducing surface concentration of silicone of silicone hydrogel contact lenses employ toxic compounds that must be extracted from the contact lens prior to final packaging (see e.g. US Pat. Appin. Publ. No. 2014/0275434). Thus, the prior art method requires additional processing steps in order to provide an ophthalmically-acceptable contact lens, which add to manufacturing costs. Further, there is a desire to minimize the use of hazardous chemicals in manufacturing sites, which is another advantage of the present invention compared to the prior art. In specific examples, the concentration of the surfactant in the packaging solution prior to contact with the contact lens is from about 0.01 wt. % or 0.02 wt. %, up to about 0.05 wt. %, 0.075 wt. %, or 0.1 wt. %. Throughout this disclosure, when a series of lower limit ranges and a series of upper limit ranges are provided, all combinations of the provided ranges are contemplated as if each combination were specifically listed. […]
Because of the low CoF values obtained for both lenses, tyloxapol and RLM-100 were evaluated further for use as a possible packaging solution additive.

Substance: tyloxapol
- HLB value [1]: about 13
- cytotoxicity (rabbits): non-cytotoxic
